From ChEMBL document CHEMBL1201862, “PubChem BioAssay data set” (2004)
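Exposure lasted 48 hours, with cells grown in 96-well plates and compounds tested at five concentrations. GI50 marks 50% less growth.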 Active and inactive are the calls of the source. Rule as the data show it: active = GI50 up to about 1.1 µM and inactive = higher.

What was measured:
Test in all cases: growth of human tumour cells (NCI), 48 h
[1] = test system: A498
[2] = test system: CCRF-CEM
[3] = test system: HCC 2998
[4] = test system: HCT-15
[5] = test system: HOP-62
[6] = test system: IGROV-1
[7] = test system: K562
[8] = test system: KM12
[9] = test system: MCF7
[10] = test system: OVCAR-4
[11] = test system: OVCAR-5
[12] = test system: OVCAR-8
[13] = test system: RXF 393
[14] = test system: SK-MEL-28
[15] = test system: SK-MEL-2
[16] = test system: SN12C
[17] = test system: SW-620
[18] = test system: MDA-MB-435
[19] = test system: PC-3
[20] = test system: MDA-MB-231

Structure (SMILES) | GI50 [1] | GI50 [2] | GI50 [3] | GI50 [4] [µM] | GI50 [5] | GI50 [6] | GI50 [7] | GI50 [8] | GI50 [9] | GI50 [10] | GI50 [11] | GI50 [12] | GI50 [13] | GI50 [14] | GI50 [15] | GI50 [16] | GI50 [17] | GI50 [18] | GI50 [19] | GI50 [20]
CCN(CC)CCNC(=O)C1COc2ccc(-c3cc(=O)c4ccccc4o3)cc2O1 (configuration not stated) | 16 µM (inactive) | 19.1 µM (inactive) | 19.2 µM (inactive) | 15.5 | 21.4 µM (inactive) | 28.9 µM (inactive) | 16 µM (inactive) | 18.2 µM (inactive) | 19.4 µM (inactive) | 18.5 µM (inactive) | 22.3 µM (inactive) | 16.7 µM (inactive) | 20 µM (inactive) | 17.4 µM (inactive) | 19.8 µM (inactive) | 19.1 µM (inactive) | 18.5 µM (inactive) | – | – | –
Cc1ccc(/S(Cc2ccccc2)=N\S(=O)(=O)c2ccc(C)cc2)cc1 (configuration not stated) | – | > 100 µM (inactive) | – | 95.1 | > 100 µM (inactive) | – | > 100 µM (inactive) | > 100 µM (inactive) | > 100 µM (inactive) | – | > 100 µM (inactive) | > 100 µM (inactive) | > 100 µM (inactive) | > 100 µM (inactive) | – | > 100 µM (inactive) | > 100 µM (inactive) | > 100 µM (inactive) | > 100 µM (inactive) | –
CCc1cccc(C(C)C)c1NC(=O)CC1Sc2ccccc2NC1=O (configuration not stated) | 46.8 µM (inactive) | 47.5 µM (inactive) | > 100 µM (inactive) | 47.9 | > 100 µM (inactive) | 37.8 µM (inactive) | 44.6 µM (inactive) | 54.8 µM (inactive) | – | 76.2 µM (inactive) | > 100 µM (inactive) | 78 µM (inactive) | 41 µM (inactive) | > 100 µM (inactive) | 39.5 µM (inactive) | > 100 µM (inactive) | 13 µM (inactive) | – | – | –
C=C=C(C(=O)OC)[S+]([O-])c1ccccc1[N+](=O)[O-] (configuration not stated) | > 100 µM (inactive) | 24.7 µM (inactive) | > 100 µM (inactive) | 59 | > 100 µM (inactive) | > 100 µM (inactive) | 59.2 µM (inactive) | > 100 µM (inactive) | – | > 100 µM (inactive) | > 100 µM (inactive) | > 100 µM (inactive) | > 100 µM (inactive) | – | > 100 µM (inactive) | > 100 µM (inactive) | 99.5 µM (inactive) | – | – | –
CCCCCCc1cc2cc(C(=O)Nc3ccc(F)cc3)c(=N)oc2cc1O | 5.05 µM (inactive) | 1.35 µM (inactive) | 5.37 µM (inactive) | 2.51 | 3.28 µM (inactive) | 1.49 µM (inactive) | 1.18 µM (inactive) | 2.92 µM (inactive) | 3.09 µM (inactive) | 2.52 µM (inactive) | 16 µM (inactive) | 1.58 µM (inactive) | – | 3.27 µM (inactive) | 3.13 µM (inactive) | – | 3.25 µM (inactive) | 2.92 µM (inactive) | 3.37 µM (inactive) | –
N#CC(/C(=N/NC(=O)C(=O)NN)C(=O)NC12CC3CC(CC(C3)C1)C2)c1ccccc1 (configuration not stated) | > 100 µM (inactive) | > 100 µM (inactive) | > 100 µM (inactive) | > 100 | > 100 µM (inactive) | > 100 µM (inactive) | > 100 µM (inactive) | > 100 µM (inactive) | – | > 100 µM (inactive) | > 100 µM (inactive) | > 100 µM (inactive) | > 100 µM (inactive) | > 100 µM (inactive) | > 100 µM (inactive) | > 100 µM (inactive) | > 100 µM (inactive) | – | – | –
COc1ccc(OC(C)=O)c2c1CCC=CC2=O | 21.5 µM (inactive) | 3.44 µM (inactive) | 17.1 µM (inactive) | 14.5 | 14.7 µM (inactive) | 17.7 µM (inactive) | 3.76 µM (inactive) | 3.4 µM (inactive) | – | 20 µM (inactive) | 16.7 µM (inactive) | 16.8 µM (inactive) | 9.16 µM (inactive) | 15 µM (inactive) | 17.8 µM (inactive) | 17.1 µM (inactive) | 13.2 µM (inactive) | – | – | –
S=C(Nc1ccccc1)c1ccc(CN2CCCCC2)s1 | 18.4 µM (inactive) | 16.4 µM (inactive) | 21.8 µM (inactive) | 18.3 | 26.5 µM (inactive) | 24 µM (inactive) | 13.8 µM (inactive) | 17.8 µM (inactive) | 18 µM (inactive) | 35.6 µM (inactive) | 16.2 µM (inactive) | 15.6 µM (inactive) | – | 16.2 µM (inactive) | 20.5 µM (inactive) | – | 16.4 µM (inactive) | 18.1 µM (inactive) | 29.7 µM (inactive) | –
Nc1nc(SCc2ccc([N+](=O)[O-])cc2)nc2c1ncn2C1OC(COP(=O)(O)O)C(O)C1O (configuration not stated) | > 100 µM (inactive) | > 100 µM (inactive) | > 100 µM (inactive) | > 100 | > 100 µM (inactive) | > 100 µM (inactive) | > 100 µM (inactive) | > 100 µM (inactive) | – | > 100 µM (inactive) | > 100 µM (inactive) | > 100 µM (inactive) | > 100 µM (inactive) | > 100 µM (inactive) | > 100 µM (inactive) | > 100 µM (inactive) | > 100 µM (inactive) | – | – | –
CCc1cccc(C(C)C)c1NC(=O)C(=O)C(CC(=O)Nc1ccc(Cl)c(Cl)c1)C(=O)OC (configuration not stated) | > 100 µM (inactive) | > 100 µM (inactive) | > 100 µM (inactive) | 14.8 | 35.2 µM (inactive) | > 100 µM (inactive) | 10.9 µM (inactive) | 43.7 µM (inactive) | – | > 100 µM (inactive) | > 100 µM (inactive) | > 100 µM (inactive) | > 100 µM (inactive) | > 100 µM (inactive) | > 100 µM (inactive) | > 100 µM (inactive) | 10 µM (inactive) | – | – | –
COc1ccc(/C=c2\sc3nnc(CCC(=O)Nc4cccc(C(F)(F)F)c4)n3c2=O)cc1 | > 100 µM (inactive) | 37.2 µM (inactive) | > 100 µM (inactive) | > 100 | > 100 µM (inactive) | > 100 µM (inactive) | > 100 µM (inactive) | > 75.9 µM (inactive) | – | > 100 µM (inactive) | > 100 µM (inactive) | 83.4 µM (inactive) | 41.5 µM (inactive) | > 74.3 µM (inactive) | 72.9 µM (inactive) | > 100 µM (inactive) | > 100 µM (inactive) | – | – | –
CCCSc1ccc2[nH]c(N3C(=O)/C(=C/c4ccccc4)N=C3c3ccccc3)cc2c1 | 27 µM (inactive) | 18.4 µM (inactive) | 15.1 µM (inactive) | 19.2 | – | 31.9 µM (inactive) | 14.2 µM (inactive) | 15.1 µM (inactive) | 24.4 µM (inactive) | 30 µM (inactive) | > 50 µM (inactive) | 19.5 µM (inactive) | 20 µM (inactive) | 32.4 µM (inactive) | 0.391 µM (active) | 30.9 µM (inactive) | 18.7 µM (inactive) | 8.3 µM (inactive) | 23.7 µM (inactive) | –
CC(C)=CC1C(COC(=O)c2cc3c(cc2Cl)OCO3)C1(C)C (configuration not stated) | 31.5 µM (inactive) | 26.9 µM (inactive) | – | 29 | 38.3 µM (inactive) | 45.2 µM (inactive) | 34.4 µM (inactive) | 28.2 µM (inactive) | – | 28.4 µM (inactive) | 60.4 µM (inactive) | 34.8 µM (inactive) | 20.8 µM (inactive) | 38.8 µM (inactive) | 18.6 µM (inactive) | 39.5 µM (inactive) | 33.1 µM (inactive) | 28 µM (inactive) | 35.5 µM (inactive) | 73.6 µM (inactive)
CCOC(=O)/C(O)=C1\C(=O)N(C)C(=O)C1c1cccc(OC)c1 (configuration not stated) | 95.3 µM (inactive) | > 100 µM (inactive) | > 100 µM (inactive) | > 100 | > 100 µM (inactive) | > 100 µM (inactive) | > 100 µM (inactive) | > 100 µM (inactive) | > 100 µM (inactive) | > 100 µM (inactive) | > 100 µM (inactive) | > 100 µM (inactive) | > 100 µM (inactive) | > 100 µM (inactive) | > 100 µM (inactive) | > 100 µM (inactive) | > 100 µM (inactive) | – | – | –
CCOc1ccccc1NC(=O)/C=C1\NC(=O)CS1 | > 100 µM (inactive) | 69 µM (inactive) | > 100 µM (inactive) | – | > 100 µM (inactive) | > 100 µM (inactive) | > 100 µM (inactive) | > 100 µM (inactive) | – | > 100 µM (inactive) | > 100 µM (inactive) | > 100 µM (inactive) | > 100 µM (inactive) | > 100 µM (inactive) | > 100 µM (inactive) | > 100 µM (inactive) | > 100 µM (inactive) | – | – | –
C[C@]12Cc3cn[nH]c3C(=O)C1CC[C@@H]1C2CC[C@@]2(C)C1CC[C@]2(C)O (some centres not stated) | > 100 µM (inactive) | > 100 µM (inactive) | > 100 µM (inactive) | > 100 | > 100 µM (inactive) | > 100 µM (inactive) | > 100 µM (inactive) | > 100 µM (inactive) | – | > 100 µM (inactive) | > 100 µM (inactive) | > 100 µM (inactive) | > 100 µM (inactive) | > 100 µM (inactive) | > 100 µM (inactive) | > 100 µM (inactive) | > 100 µM (inactive) | – | – | –
O=S(=O)(O)c1cc(/N=[N+](\[O-])c2ccc(/N=N/c3ccccc3)cc2S(=O)(=O)O)ccc1/C=C/c1ccc(/N=[N+](\[O-])c2ccc(/N=N/c3ccccc3)cc2S(=O)(=O)O)cc1S(=O)(=O)O | > 100 µM (inactive) | > 95.3 µM (inactive) | > 100 µM (inactive) | > 100 | > 100 µM (inactive) | > 100 µM (inactive) | > 100 µM (inactive) | > 100 µM (inactive) | > 100 µM (inactive) | > 87.3 µM (inactive) | > 100 µM (inactive) | > 100 µM (inactive) | > 100 µM (inactive) | > 100 µM (inactive) | > 100 µM (inactive) | > 100 µM (inactive) | > 100 µM (inactive) | – | – | –
